Legend:
[1] = test system: 5'-flanking region of the rat Reg gene; assay: Reg promoter/luciferase reporter assay in RINm5F cells; assay type: cell-based
Experimental: A 2,303-bp fragment containing the 5′-flanking region of Reg gene was fused to the luciferase gene and transfected into RINm5F β-cells.
Specifically, luciferase reporter gene constructs were generated as described in Miyashita, H. et al. (1994) Biochim. Biophys. Acta, 1219, 241-243. RINm5F cells were seeded at 1×10^5 cells/well in 24-well dish. After 48 h, 3.0 μg of test plasmid and 0.2 μg of pCMV-SPORT β-gal (Life Technologies, Inc.) were transfected by lipofection (Felgner, J. H. et al. (1994) J. Biol. Chem., 269, 2550-2561) using DMRIE-C™ (Life Technologies, Inc.). After 24 h, the medium of each dish was replaced with fresh medium containing stimulants and incubated further for 24 h. Cells were harvested in 1 ml of ice-cold phosphate-buffered saline (PBS), washed twice with PBS, and extracts were prepared in extraction buffer (0.1 M potassium phosphate, pH 6.8, 1 mM DTT). The protein concentration was determined using a Coomassie reagent kit (Pierce) and bovine serum albumin as a standard. Luciferase activity was determined by a chemiluminescence substrate using a Pica Gene™ Luminescence Kit (Toyo Ink Mfg. Co, Ltd., Tokyo, Japan). β-galactosidase activity was determined using Aurora™ GAL-XE (ICN).

[2] = molecular target: T1, poly(ADP-ribose) synthetase/polymerase (PARP) (Rattus norvegicus, UniProt P27008); assay: GMSA binding reaction of RINm5F nuclear extracts, effects of ADP-ribosylation; assay type: biochemical; conditions: 1 mM β-NAD+ in the GMSA binding reaction; read-out: concentrations of half maximal inhibition (quenching of the effect of β-NAD+ on the GMSA band)
T1 construct: Nuclear extracts from RINm5F cells were prepared as described; endogenous in cells; host or cells: RINm5F (rat insulinoma) nuclear extract
T1 sequence (P27008 whole entry): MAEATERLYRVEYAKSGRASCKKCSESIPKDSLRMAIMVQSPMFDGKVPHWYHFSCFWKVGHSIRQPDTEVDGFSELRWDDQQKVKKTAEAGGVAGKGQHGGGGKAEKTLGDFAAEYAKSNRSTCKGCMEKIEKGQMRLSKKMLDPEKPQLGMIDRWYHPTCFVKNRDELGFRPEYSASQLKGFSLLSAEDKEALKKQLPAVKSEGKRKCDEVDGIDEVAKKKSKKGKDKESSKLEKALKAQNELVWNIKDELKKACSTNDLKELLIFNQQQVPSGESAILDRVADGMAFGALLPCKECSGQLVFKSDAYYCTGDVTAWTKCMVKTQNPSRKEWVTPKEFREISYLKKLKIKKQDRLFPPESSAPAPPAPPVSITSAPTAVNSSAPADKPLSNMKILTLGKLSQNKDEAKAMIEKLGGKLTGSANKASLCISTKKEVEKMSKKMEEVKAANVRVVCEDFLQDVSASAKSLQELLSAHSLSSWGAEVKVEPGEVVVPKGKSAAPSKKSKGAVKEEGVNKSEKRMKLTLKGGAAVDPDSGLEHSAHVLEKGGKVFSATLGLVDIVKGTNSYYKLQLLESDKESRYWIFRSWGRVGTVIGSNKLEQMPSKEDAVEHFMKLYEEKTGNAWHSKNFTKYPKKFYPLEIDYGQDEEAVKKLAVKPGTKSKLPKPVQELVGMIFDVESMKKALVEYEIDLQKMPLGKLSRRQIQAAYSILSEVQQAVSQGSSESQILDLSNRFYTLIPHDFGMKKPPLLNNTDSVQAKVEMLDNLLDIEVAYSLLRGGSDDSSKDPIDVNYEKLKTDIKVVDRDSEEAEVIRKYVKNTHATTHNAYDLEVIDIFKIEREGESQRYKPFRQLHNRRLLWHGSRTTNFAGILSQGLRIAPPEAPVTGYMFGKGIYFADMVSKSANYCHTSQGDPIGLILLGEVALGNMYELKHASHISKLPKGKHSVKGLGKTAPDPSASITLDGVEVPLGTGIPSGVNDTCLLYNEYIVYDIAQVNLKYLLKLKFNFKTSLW
Experimental: The nuclear extract (10 μg) was incubated in a final volume of 20 μl of buffer containing 20 mM Tris-HCl (pH 7.9), 2 mM MgCl2, 50 mM NaCl, 2 mM EDTA, 10% glycerol, 0.1% Nonidet P-40, 1 mM DTT, 50 μg/ml bovine serum albumin and 1 μg of poly(dI-dC). After incubation for 10 min at room temperature, 2.5 pmol of double-stranded DNA, previously labeled by an exchange reaction using MEGALABEL (Takara Shuzo) and [γ-^32P]ATP (Amersham Pharmacia Biotech), were added and incubated for 30 min at room temperature, then the binding reactions were resolved on pre-run 6% acrylamide gel. […] After electrophoresis, DNA/proteins were electrophoretically transferred to a PolyScreen™ PVDF membrane (NEN).
Poly(ADP-ribosyl)ation of nuclear proteins was performed in the same condition as GMSA in the presence of 62 nM [adenylate-^32P]NAD^+ (2×10^6 cpm, NEN). The ADP-ribosylated proteins were precipitated by the addition of 9 volume of acetone, separated by SDS-PAGE (12.5%) and autoradiographed.

[3] = nicotinamide added to IL-6/dexamethasone

- IC50 [2]: 250 µM
SMILES: NC(=O)c1cccnc1 [nicotinamide]
- luciferase activity (result in words) ([1]; 2,303-bp Reg 5'-flanking fragment, 24 h stimulation): ineffective
- enhancement of IL-6/dexamethasone-induced transcription of Reg gene, "-70" construct [1, 3]: abolished
- enhancement of IL-6/dexamethasone-induced transcription of Reg gene, -2,303 to -81 deletions [1, 3]: the enhancement was observed

Source: US20060134063A1, “Agents for proliferating pancreatic beta-cells of the islets of langerhans, agents for suppressing apoptosis of said cells, and screening of candidate compounds for these agents” (priority 2000, published 2006)
